From ChEMBL document CHEMBL5465560, “Selectivity Literature for EUbOPEN Chemogenomic Library” (2024)

Tests used:
[1] = target: Histone-lysine N-methyltransferase 2C (Homo sapiens) (UniProt Q8NEZ4); assay: Selectivity interaction (Methyltransferase screen (radiometric assays, panel of 8 PRMTs, 21 protein lysine methyltransferases, 3 DNA methyltransferases, and one RNA methyltransferase)) EUB0000272b MLL3
[2] = target: Ribosomal protein S6 kinase alpha-3 (Homo sapiens, UniProt P51812); assay: Selectivity interaction (Millipore kinase profiler) EUB0000124b RPS6KA3; conditions: at 10 µM
[3] = target: Cyclin-dependent kinase 16 (Homo sapiens) (UniProt Q00536); assay: Selectivity interaction (KinomeScan (DiscoverX)) EUB0000618a CDK16; conditions: at 10 µM
[4] = target: Myosin-IIIa (Homo sapiens) (UniProt Q8NEV4); assay: Selectivity interaction (KinomeScan (DiscoverX)) EUB0001619a MYO3A; conditions: at 1 µM
[5] = target: Bone morphogenetic protein receptor type-1A (Homo sapiens, UniProt P36894); assay: Selectivity interaction (KinomeScan (DiscoverX)) EUB0001619a BMPR1A; conditions: at 1 µM
[6] = target: T1, Mitogen-activated protein kinase kinase kinase kinase 2 (Homo sapiens) (UniProt Q12851); conditions: at 10 µM
T1 sequence (whole entry): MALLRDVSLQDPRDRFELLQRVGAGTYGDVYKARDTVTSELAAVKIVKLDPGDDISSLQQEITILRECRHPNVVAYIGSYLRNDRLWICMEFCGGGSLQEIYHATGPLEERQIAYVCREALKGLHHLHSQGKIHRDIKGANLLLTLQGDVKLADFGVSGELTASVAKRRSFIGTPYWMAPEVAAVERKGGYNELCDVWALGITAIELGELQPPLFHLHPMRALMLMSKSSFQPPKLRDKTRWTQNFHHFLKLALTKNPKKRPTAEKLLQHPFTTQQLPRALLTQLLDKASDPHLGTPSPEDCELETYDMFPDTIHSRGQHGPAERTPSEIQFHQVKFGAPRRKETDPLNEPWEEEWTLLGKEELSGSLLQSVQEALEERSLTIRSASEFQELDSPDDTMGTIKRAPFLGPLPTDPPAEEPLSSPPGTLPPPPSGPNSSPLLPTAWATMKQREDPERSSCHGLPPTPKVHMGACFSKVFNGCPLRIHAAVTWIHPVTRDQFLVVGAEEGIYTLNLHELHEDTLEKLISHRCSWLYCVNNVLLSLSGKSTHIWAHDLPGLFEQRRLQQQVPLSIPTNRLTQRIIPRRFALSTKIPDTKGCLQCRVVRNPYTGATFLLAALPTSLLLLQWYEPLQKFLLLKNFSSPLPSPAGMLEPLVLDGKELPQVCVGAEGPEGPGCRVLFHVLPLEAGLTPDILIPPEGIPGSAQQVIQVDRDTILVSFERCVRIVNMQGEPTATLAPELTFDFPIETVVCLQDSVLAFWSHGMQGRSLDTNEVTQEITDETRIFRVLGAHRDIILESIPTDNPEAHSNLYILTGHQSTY

[7] = target: T2, Alpha-2C adrenergic receptor (Homo sapiens) (UniProt P18825); assay: Selectivity interaction (Panel of kinases, GPCRs, ion channels and transporters (enzymatic assay)) EUB0000266bCl ADRA2C
T2 sequence (whole entry): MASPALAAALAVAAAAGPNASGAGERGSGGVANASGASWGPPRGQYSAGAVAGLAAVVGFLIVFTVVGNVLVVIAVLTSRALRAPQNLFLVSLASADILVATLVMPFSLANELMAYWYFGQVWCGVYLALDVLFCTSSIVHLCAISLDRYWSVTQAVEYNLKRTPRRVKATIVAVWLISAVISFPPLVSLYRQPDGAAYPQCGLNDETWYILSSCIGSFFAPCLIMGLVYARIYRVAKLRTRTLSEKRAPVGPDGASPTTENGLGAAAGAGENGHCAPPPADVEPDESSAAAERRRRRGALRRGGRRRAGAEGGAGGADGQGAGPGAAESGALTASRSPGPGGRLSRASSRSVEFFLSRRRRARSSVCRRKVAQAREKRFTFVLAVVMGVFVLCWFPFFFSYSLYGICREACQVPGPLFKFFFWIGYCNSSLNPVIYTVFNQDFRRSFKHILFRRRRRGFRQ

[8] = target: T3, cGMP-dependent protein kinase 1 (Homo sapiens) (UniProt Q13976); assay: Selectivity interaction (Kinase panel (Z-LYTE Assay)) EUB0001632a PRKG1; conditions: at 10 µM
T3 sequence (whole entry): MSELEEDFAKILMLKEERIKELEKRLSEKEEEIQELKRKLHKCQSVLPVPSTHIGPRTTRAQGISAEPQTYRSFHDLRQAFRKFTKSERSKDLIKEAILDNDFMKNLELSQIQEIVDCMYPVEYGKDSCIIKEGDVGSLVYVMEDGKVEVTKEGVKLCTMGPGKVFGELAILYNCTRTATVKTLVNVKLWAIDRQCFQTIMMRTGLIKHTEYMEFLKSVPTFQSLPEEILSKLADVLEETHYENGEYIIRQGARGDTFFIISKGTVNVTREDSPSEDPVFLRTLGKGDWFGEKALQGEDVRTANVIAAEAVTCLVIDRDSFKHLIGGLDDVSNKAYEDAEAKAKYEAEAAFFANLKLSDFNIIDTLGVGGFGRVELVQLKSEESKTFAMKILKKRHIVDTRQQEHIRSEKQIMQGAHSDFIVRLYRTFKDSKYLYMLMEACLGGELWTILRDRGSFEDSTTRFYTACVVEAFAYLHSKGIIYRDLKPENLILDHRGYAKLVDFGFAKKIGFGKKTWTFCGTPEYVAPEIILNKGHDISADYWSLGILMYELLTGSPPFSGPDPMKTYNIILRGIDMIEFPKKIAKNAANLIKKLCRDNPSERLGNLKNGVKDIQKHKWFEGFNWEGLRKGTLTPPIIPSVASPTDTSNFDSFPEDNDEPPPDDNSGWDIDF

[9] = target: MAP kinase-activated protein kinase 3 (Homo sapiens) (UniProt Q16644); assay: Selectivity interaction (Kinase screening (Nanosyn)) EUB0000604a MAPKAPK3
[10] = target: Ribosomal protein S6 kinase alpha-4 (Homo sapiens) (UniProt O75676); assay: Selectivity interaction (KinomeScan (DiscoverX)) EUB0000695a RPS6KA4; conditions: at 100 nM

Histone-lysine N-methyltransferase 2C (Homo sapiens), sequence (Q8NEZ4 whole entry): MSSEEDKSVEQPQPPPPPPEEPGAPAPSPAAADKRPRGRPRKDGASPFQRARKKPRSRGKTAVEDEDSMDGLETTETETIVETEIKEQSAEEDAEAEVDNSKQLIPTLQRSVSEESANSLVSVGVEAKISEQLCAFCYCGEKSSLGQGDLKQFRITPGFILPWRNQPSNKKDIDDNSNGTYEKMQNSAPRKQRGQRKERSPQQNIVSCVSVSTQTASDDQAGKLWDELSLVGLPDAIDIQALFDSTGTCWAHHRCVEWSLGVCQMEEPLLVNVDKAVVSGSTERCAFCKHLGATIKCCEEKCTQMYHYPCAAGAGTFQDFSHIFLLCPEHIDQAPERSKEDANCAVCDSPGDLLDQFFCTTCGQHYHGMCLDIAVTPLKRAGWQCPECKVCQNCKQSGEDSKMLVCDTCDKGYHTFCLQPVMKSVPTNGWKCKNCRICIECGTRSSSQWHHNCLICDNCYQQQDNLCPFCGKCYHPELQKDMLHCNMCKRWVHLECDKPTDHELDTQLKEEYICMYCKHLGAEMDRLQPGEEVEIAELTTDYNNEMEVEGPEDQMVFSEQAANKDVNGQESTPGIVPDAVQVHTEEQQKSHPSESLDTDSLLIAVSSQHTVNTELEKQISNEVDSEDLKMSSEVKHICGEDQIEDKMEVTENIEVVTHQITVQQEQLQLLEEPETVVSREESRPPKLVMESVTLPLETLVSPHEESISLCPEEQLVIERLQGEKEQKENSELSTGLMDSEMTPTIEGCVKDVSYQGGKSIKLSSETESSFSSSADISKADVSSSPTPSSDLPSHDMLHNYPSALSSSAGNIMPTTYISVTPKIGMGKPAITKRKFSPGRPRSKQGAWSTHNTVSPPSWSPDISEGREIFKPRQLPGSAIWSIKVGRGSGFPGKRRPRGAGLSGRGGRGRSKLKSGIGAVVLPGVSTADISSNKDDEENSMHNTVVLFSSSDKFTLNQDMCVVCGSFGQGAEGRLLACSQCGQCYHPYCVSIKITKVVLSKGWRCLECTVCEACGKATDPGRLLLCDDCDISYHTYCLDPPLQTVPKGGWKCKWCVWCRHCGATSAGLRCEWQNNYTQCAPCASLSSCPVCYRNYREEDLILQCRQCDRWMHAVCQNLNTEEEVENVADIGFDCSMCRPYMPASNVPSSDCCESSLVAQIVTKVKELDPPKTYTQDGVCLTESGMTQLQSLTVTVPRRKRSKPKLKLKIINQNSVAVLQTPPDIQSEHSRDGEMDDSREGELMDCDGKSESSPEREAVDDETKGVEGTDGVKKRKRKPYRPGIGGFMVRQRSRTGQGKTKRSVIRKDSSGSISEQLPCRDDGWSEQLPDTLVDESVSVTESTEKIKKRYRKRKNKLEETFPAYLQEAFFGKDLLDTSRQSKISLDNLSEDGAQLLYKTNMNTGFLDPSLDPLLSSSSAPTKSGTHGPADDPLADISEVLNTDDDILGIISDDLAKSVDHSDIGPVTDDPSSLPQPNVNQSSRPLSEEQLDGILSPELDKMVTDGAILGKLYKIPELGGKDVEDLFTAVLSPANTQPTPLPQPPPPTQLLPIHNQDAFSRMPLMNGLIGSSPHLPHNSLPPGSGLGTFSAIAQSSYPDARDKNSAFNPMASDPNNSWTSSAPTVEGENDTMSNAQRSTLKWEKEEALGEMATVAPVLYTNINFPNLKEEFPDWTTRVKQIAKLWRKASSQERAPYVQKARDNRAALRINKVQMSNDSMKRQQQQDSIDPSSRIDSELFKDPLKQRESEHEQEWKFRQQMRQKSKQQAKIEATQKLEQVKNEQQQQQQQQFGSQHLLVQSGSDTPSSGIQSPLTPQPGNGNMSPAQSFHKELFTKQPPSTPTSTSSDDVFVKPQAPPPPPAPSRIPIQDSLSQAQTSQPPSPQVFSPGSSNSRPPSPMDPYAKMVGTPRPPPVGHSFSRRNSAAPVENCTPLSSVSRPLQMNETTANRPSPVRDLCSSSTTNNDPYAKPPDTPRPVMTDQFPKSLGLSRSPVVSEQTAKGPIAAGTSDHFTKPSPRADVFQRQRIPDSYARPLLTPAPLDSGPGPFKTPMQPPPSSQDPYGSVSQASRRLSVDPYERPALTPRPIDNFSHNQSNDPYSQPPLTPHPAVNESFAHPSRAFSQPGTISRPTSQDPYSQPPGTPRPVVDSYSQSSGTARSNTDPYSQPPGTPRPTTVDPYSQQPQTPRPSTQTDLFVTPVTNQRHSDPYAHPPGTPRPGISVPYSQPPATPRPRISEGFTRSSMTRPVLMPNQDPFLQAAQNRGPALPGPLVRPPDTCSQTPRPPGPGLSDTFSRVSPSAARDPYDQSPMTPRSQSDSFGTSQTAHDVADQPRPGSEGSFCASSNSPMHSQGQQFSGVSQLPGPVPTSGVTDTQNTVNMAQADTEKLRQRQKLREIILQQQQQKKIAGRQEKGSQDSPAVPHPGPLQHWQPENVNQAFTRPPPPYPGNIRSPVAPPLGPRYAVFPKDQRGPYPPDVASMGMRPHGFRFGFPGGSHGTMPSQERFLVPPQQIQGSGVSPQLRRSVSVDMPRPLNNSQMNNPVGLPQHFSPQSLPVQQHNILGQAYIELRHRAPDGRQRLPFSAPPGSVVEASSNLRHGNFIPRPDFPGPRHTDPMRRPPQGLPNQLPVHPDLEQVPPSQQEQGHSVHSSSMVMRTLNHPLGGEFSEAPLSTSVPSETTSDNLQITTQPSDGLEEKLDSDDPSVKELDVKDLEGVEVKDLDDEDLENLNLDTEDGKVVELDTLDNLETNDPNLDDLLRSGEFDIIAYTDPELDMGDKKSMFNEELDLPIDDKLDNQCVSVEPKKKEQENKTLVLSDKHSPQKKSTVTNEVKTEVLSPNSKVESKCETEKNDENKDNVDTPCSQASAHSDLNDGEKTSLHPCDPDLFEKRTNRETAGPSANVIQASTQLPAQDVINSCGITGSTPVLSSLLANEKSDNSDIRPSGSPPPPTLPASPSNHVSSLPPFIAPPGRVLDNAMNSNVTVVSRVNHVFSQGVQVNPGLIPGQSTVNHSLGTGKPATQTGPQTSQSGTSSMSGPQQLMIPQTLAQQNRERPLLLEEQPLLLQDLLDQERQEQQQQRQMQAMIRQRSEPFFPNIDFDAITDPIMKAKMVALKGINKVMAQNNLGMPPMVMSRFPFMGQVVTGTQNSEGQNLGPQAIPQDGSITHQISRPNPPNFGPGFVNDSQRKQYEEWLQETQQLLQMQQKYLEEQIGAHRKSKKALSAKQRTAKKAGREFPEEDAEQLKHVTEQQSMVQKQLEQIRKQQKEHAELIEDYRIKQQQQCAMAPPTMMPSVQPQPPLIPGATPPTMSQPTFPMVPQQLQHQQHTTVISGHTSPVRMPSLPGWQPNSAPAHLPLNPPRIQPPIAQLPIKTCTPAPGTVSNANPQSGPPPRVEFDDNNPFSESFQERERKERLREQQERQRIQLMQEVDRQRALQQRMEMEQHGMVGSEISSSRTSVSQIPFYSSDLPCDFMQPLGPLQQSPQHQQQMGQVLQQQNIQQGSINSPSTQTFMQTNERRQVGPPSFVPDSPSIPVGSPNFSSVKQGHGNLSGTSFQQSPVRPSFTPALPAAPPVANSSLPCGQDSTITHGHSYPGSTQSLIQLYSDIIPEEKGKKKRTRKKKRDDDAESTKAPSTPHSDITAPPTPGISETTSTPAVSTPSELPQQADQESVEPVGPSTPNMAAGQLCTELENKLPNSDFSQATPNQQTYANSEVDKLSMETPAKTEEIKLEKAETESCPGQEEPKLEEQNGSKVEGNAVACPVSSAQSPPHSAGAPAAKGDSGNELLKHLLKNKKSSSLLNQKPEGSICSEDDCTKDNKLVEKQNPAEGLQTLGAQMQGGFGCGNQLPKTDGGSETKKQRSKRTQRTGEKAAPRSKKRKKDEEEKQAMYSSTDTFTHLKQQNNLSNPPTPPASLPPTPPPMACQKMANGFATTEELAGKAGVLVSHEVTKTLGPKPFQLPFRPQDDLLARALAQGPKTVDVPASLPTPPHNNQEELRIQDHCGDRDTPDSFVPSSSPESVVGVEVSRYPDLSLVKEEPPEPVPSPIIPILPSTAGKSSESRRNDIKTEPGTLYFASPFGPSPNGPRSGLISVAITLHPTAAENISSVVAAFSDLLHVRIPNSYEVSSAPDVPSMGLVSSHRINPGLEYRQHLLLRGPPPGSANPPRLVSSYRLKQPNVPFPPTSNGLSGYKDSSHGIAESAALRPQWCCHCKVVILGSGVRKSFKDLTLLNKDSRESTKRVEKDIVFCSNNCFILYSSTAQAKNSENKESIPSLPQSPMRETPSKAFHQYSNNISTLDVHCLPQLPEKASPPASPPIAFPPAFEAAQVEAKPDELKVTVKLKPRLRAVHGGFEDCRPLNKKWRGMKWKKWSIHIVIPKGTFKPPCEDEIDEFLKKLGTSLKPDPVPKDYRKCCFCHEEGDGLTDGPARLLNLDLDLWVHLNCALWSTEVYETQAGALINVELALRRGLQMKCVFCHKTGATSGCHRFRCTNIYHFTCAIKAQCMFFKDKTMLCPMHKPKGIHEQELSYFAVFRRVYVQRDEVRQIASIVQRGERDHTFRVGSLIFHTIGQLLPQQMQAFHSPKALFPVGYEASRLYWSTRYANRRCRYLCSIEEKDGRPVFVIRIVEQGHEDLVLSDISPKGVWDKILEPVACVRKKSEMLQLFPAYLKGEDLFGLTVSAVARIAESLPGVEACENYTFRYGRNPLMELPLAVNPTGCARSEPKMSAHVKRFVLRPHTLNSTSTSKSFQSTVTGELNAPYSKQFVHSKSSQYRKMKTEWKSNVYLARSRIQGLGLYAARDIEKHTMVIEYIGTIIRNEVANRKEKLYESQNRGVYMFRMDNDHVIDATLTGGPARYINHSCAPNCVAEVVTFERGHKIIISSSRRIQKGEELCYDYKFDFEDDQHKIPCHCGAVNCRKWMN

SMILES: Cc1cc(C)cc([C@H]2c3cc(C)ccc3NC(=O)CN2C(=O)c2ccc(Br)s2)c1
- % of activity ([1]; at 1 µM): 101%
- % of activity ([1]; at 10 µM): 92%

SMILES: CC(=O)Nc1cccc(-n2c(=O)n(C3CC3)c(=O)c3c(Nc4ccc(I)cc4F)n(C)c(=O)c(C)c32)c1
- % of control [2]: 94%

SMILES: O[C@H]1CC[C@H](Nc2ncc3nc(Nc4c(F)cc(F)cc4F)n([C@H]4CCOC4)c3n2)CC1
- % of control [3]: 100%

SMILES: N#Cc1cccc(-c2c[nH]c3ncnc(N4CCOCC4)c23)c1
- % of control [4]: 94%
- % of control [5]: 98%

SMILES: Cc1cc([C@@H](C)Nc2ccccc2C(=O)O)c2nc(N3CCOCC3)cc(=O)n2c1 [AZD-6482]
- % of control [6]: 56%

SMILES: CCn1c(-c2nc3cc(C(=O)N4CCCC(N)C4)ccc3n2C)cc2ccccc21 (stereo unspecified)
- pXC50 [7]: < 4.5 M

SMILES: Cn1cc(-n2cnc3c(NCc4nc5cc(Cl)c(Cl)cc5[nH]4)nc(N4CCOCC4)nc32)cn1
- % of control [8]: -8.04%

SMILES: Cc1cnc(Nc2ccc(F)cc2Cl)nc1-c1c[nH]c(C(=O)N[C@H](CO)c2cccc(Cl)c2)c1
- % of inhibition [9]: 5%

SMILES: Cc1cc(F)c(C(=O)Nc2cccc(-c3nncn3C(C)C)n2)cc1-n1cnc(C2CC2)c1
- % of control [10]: 100%
